Here are results for 15 molecules from US20240246977A1, “DEGRADATION OF BRUTON'S TYROSINE KINASE (BTK) BY CONJUGATION OF BTK INHIBITORS WITH E3 LIGASE LIGAND AND METHOD OF USE” (BeiGene Switzerland GmbH, priority 2021, published 2024).

One assay concerns the target BTK (Homo sapiens, UniProt Q06187). Briefly: BTK cell degradation in TMD-8 cells, HTRF assay. In kind it is cell-based. Further details: endogenous in cells; host or cells: TMD-8 cells. The note with it: 6 h treatment, IC50 (DC50) of BTK degradation. An outline of the steps:
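TMD-8 cells treated 6 h with 8-dose series (6-fold dilutions, 0.2% DMSO final), then lysed and BTK quantified by HTRF (337/665/620 nm) after overnight antibody incubation at room temperature. Degradation normalized to DMSO high and low controls; DC50 and Dmax from four-parameter fit.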

The subject of another assay is HEK-293 cells. Briefly: HEK-293 cytotoxicity detection (CellTiter-Glo). In kind it is cell-based. The note with it: Homo sapiens, 72 h, 72 h incubation, CellTiter-Glo luminescence, read-out: HEK293. An outline of the steps:
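HEK-293 cells exposed 72 h to 8 compounds doses (4-fold dilutions, top stock 5 mM at 500×) in 0.2% DMSO. Viability by CellTiter-Glo luminescence; inhibition normalised to DMSO high control and low control, IC50 from four-parameter curve fit.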

Chain of BTK (Q06187 whole entry): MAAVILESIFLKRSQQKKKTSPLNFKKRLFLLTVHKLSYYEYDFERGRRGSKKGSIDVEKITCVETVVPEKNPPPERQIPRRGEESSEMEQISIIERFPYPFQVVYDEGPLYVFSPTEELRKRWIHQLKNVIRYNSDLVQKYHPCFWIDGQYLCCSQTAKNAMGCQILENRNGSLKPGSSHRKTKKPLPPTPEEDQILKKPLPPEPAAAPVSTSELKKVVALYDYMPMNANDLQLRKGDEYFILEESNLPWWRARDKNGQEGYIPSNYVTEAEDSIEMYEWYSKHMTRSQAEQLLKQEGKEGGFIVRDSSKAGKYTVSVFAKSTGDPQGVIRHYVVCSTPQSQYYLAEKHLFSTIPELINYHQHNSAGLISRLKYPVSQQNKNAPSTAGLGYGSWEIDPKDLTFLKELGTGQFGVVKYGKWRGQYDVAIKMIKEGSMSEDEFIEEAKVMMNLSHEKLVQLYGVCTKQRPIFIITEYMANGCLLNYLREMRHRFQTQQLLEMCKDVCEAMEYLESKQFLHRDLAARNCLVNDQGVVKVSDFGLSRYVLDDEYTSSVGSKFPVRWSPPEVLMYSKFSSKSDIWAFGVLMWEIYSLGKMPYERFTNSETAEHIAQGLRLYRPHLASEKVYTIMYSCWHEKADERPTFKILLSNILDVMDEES

The molecule `Cc1cccc(N(CC(=O)OCc2ccccc2)C(=O)c2ccc(-c3nn4c(c3C(N)=O)Nc3ccc(N5CCN(CC6CCN(c7ccc(N8CCC(=O)N(CC(=O)OCc9ccccc9)C8=O)cc7)CC6)CC5)cc3CC4)c(F)c2C)n1` [Example B81, benzyl 2-(3-(4-(4-((4-(2-(4-((2-(benzyloxy)-2-oxoethyl)(6-methylpyridin-2-yl)carbamoyl)-2-fluoro-3-methylphenyl)-3-carbamoyl-9,10-dihydro-4H-benzo[d]pyrazolo[1,5-a][1,3]diazepin-7-yl)piperazin-1-yl)methyl)piperidin-1-yl)phenyl)-2,6-dioxotetrahydropyrimidin-1(2H)-yl)acetate] showed a DC50 at BTK of over 2000 nM. Further, in the assay with HEK-293 cells, the IC50 was 56.8 nM.
For `Cc1c(C(=O)Nc2ccn(C)n2)ccc(-c2nn3c(c2C(N)=O)Nc2ccc(N4CCN(CC5CCN(c6ccc(N7CCC(=O)NC7=O)cc6)CC5)CC4)cc2CC3)c1F` [Example B82, 7-(4-((1-(4-(2,4-dioxotetrahydropyrimidin-1(2H)-yl)phenyl)piperidin-4-yl)methyl)piperazin-1-yl)-2-(2-fluoro-3-methyl-4-((1-methyl-1H-pyrazol-3-yl)carbamoyl)phenyl)-9,10-dihydro-4H-benzo[d]pyrazolo[1,5-a][1,3]diazepine-3-carboxamide], at BTK, it took 4.1 nM to reach half-maximal degradation (DC50). In the assay on HEK-293 cells, the IC50 is over 10000 nM.
Molecule `Cc1c(C(=O)Nc2nccs2)ccc(-c2nn3c(c2C(N)=O)Nc2ccc(N4CCN(CC5CCN(c6ccc(N7CCC(=O)NC7=O)cc6)CC5)CC4)cc2CC3)c1F` [Example B83, 7-(4-((1-(4-(2,4-dioxotetrahydropyrimidin-1(2H)-yl)phenyl)piperidin-4-yl)methyl)piperazin-1-yl)-2-(2-fluoro-3-methyl-4-(thiazol-2-ylcarbamoyl)phenyl)-9,10-dihydro-4H-benzo[d]pyrazolo[1,5-a][1,3]diazepine-3-carboxamide] came in with a DC50 on BTK of 2.9 nM. Also, the IC50 in the assay on HEK-293 cells is over 10000 nM.
The like results for `Cc1c(C(=O)Nc2ncn(C)n2)ccc(-c2nn3c(c2C(N)=O)Nc2ccc(N4CCN(CC5CCN(c6ccc(N7CCC(=O)NC7=O)cc6)CC5)CC4)cc2CC3)c1F` [Example B84, 7-(4-((1-(4-(2,4-dioxotetrahydropyrimidin-1(2H)-yl)phenyl)piperidin-4-yl)methyl)piperazin-1-yl)-2-(2-fluoro-3-methyl-4-((1-methyl-1H-1,2,4-triazol-3-yl)carbamoyl)phenyl)-9,10-dihydro-4H-benzo[d]pyrazolo[1,5-a][1,3]diazepine-3-carboxamide] were, in that order, 2.32 nM and over 10000 nM.
The like results for `Cc1c(C(=O)Nc2nc(C(F)(F)F)n[nH]2)ccc(-c2nn3c(c2C(N)=O)Nc2ccc(N4CCN(CC5CCN(c6ccc(N7CCC(=O)NC7=O)cc6)CC5)CC4)cc2CC3)c1F` [Example B85, 7-(4-((1-(4-(2,4-dioxotetrahydropyrimidin-1(2H)-yl)phenyl)piperidin-4-yl)methyl)piperazin-1-yl)-2-(2-fluoro-3-methyl-4-((3-(trifluoromethyl)-1H-1,2,4-triazol-5-yl)carbamoyl)phenyl)-9,10-dihydro-4H-benzo[d]pyrazolo[1,5-a][1,3]diazepine-3-carboxamide] were, in that order, 1.87 nM and over 10000 nM.
The molecule `Cc1c(C(=O)Nc2cc(C)n(C)n2)ccc(-c2nn3c(c2C(N)=O)Nc2ccc(N4CCN(CC5CCN(c6ccc(N7CCC(=O)NC7=O)cc6)CC5)CC4)cc2CC3)c1F` [Example B86, 2-(4-((1,5-dimethyl-1H-pyrazol-3-yl)carbamoyl)-2-fluoro-3-methylphenyl)-7-(4-((1-(4-(2,4-dioxotetrahydropyrimidin-1(2H)-yl)phenyl)piperidin-4-yl)methyl)piperazin-1-yl)-9,10-dihydro-4H-benzo[d]pyrazolo[1,5-a][1,3]diazepine-3-carboxamide] had a DC50 on BTK of 4.37 nM. For the same molecule, the IC50 in the assay with HEK-293 cells is over 10000 nM.
For `Cc1c(C(=O)Nc2cn(C)cn2)ccc(-c2nn3c(c2C(N)=O)Nc2ccc(N4CCN(CC5CCN(c6ccc(N7CCC(=O)NC7=O)cc6)CC5)CC4)cc2CC3)c1F` [Example B87, 7-(4-((1-(4-(2,4-dioxotetrahydropyrimidin-1(2H)-yl)phenyl)piperidin-4-yl)methyl)piperazin-1-yl)-2-(2-fluoro-3-methyl-4-((1-methyl-1H-imidazol-4-yl)carbamoyl)phenyl)-9,10-dihydro-4H-benzo[d]pyrazolo[1,5-a][1,3]diazepine-3-carboxamide] the same measures were 0.591 nM and over 10000 nM.
`Cc1c(C(=O)Nc2cn(C)cn2)ccc(-c2nn3c(c2C(N)=O)Nc2ccc(N4CCN(CCc5cc(F)c(C6CCC(=O)NC6=O)c(F)c5)CC4)cc2CC3)c1F` (stereo not drawn) [Example B88, 7-(4-(4-(2,6-dioxopiperidin-3-yl)-3,5-difluorophenethyl)piperazin-1-yl)-2-(2-fluoro-3-methyl-4-((1-methyl-1H-imidazol-4-yl)carbamoyl)phenyl)-9,10-dihydro-4H-benzo[d]pyrazolo[1,5-a][1,3]diazepine-3-carboxamide] registered a DC50 at BTK of 1.63 nM. The IC50 with HEK-293 cells is over 10000 nM.
For `Cc1c(C(=O)Nc2cn(C)cn2)ccc(-c2nn3c(c2C(N)=O)Nc2ccc(N4CCN(CCc5cccc6c5oc(=O)n6C5CCC(=O)NC5=O)CC4)cc2CC3)c1F` (stereo not drawn) [Example B90, 7-(4-(2-(3-(2,6-dioxopiperidin-3-yl)-2-oxo-2,3-dihydrobenzo[d]oxazol-7-yl)ethyl)piperazin-1-yl)-2-(2-fluoro-3-methyl-4-((1-methyl-1H-imidazol-4-yl)carbamoyl)phenyl)-9,10-dihydro-4H-benzo[d]pyrazolo[1,5-a][1,3]diazepine-3-carboxamide] the same measures were 0.706 nM and over 10000 nM.
As for `Cc1c(C(=O)Nc2cn(C)cn2)ccc(-c2nn3c(c2C(N)=O)Nc2ccc(N4CCN(C(=O)C5CCN(c6ccc(N7CCC(=O)NC7=O)cc6)CC5)CC4)cc2CC3)c1F` [Example B91, 7-(4-(1-(4-(2,4-dioxotetrahydropyrimidin-1(2H)-yl)phenyl)piperidine-4-carbonyl)piperazin-1-yl)-2-(2-fluoro-3-methyl-4-((1-methyl-1H-imidazol-4-yl)carbamoyl)phenyl)-9,10-dihydro-4H-benzo[d]pyrazolo[1,5-a][1,3]diazepine-3-arboxamide], at BTK, the DC50 is 1.36 nM. The IC50 with HEK-293 cells was over 10000 nM.
`Cc1c(C(=O)Nc2cn(C)cn2)ccc(-c2nn3c(c2C(N)=O)Nc2ccc(N4CCN(C[C@H]5CCN(c6ccc(N7CCC(=O)NC7=O)cc6)C5)CC4)cc2CC3)c1F` [Example B92, (R)-7-(4-((1-(4-(2,4-dioxotetrahydropyrimidin-1(2H)-yl)phenyl)pyrrolidin-3-yl)methyl)piperazin-1-yl)-2-(2-fluoro-3-methyl-4-((1-methyl-1H-imidazol-4-yl)carbamoyl)phenyl)-9,10-dihydro-4H-benzo[d]pyrazolo[1,5-a][1,3]diazepine-3-carboxamide] displayed a DC50 at BTK of 1.86 nM. The IC50 in the assay with HEK-293 cells is over 10000 nM.
The like results for `Cc1c(C(=O)Nc2ncnn2C)ccc(-c2nn3c(c2C(N)=O)Nc2ccc(N4CCN(CC5CCN(c6ccc(N7CCC(=O)NC7=O)cc6)CC5)CC4)cc2CC3)c1F` [Example B93, 7-(4-((1-(4-(2,4-dioxotetrahydropyrimidin-1(2H)-yl)phenyl)piperidin-4-yl)methyl)piperazin-1-yl)-2-(2-fluoro-3-methyl-4-((1-methyl-1H-1,2,4-triazol-5-yl)carbamoyl)phenyl)-9,10-dihydro-4H-benzo[d]pyrazolo[1,5-a][1,3]diazepine-3-carboxamide] were, in that order, 3.77 nM and over 10000 nM.
For `Cc1c(C(=O)Nc2cscn2)ccc(-c2nn3c(c2C(N)=O)Nc2ccc(N4CCN(CC5CCN(c6ccc(N7CCC(=O)NC7=O)cc6)CC5)CC4)cc2CC3)c1F` [Example B94, 7-(4-((1-(4-(2,4-dioxotetrahydropyrimidin-1(2H)-yl)phenyl)piperidin-4-yl)methyl)piperazin-1-yl)-2-(2-fluoro-3-methyl-4-(thiazol-4-ylcarbamoyl)phenyl)-9,10-dihydro-4H-benzo[d]pyrazolo[1,5-a][1,3]diazepine-3-carboxamide] the same measures were 0.378 nM and over 10000 nM.
`Cc1c(C(=O)Nc2cscn2)ccc(-c2nn3c(c2C(N)=O)Nc2ccc(N4CCN(CCc5cccc6c5oc(=O)n6C5CCC(=O)NC5=O)CC4)cc2CC3)c1F` (stereo not drawn) [Example B96, 7-(4-(2-(3-(2,6-dioxopiperidin-3-yl)-2-oxo-2,3-dihydrobenzo[d]oxazol-7-yl)ethyl)piperazin-1-yl)-2-(2-fluoro-3-methyl-4-(thiazol-4-ylcarbamoyl)phenyl)-9,10-dihydro-4H-benzo[d]pyrazolo[1,5-a][1,3]diazepine-3-carboxamide] showed a DC50 at BTK of 0.586 nM. Further, the IC50 in the assay with HEK-293 cells stood at 116 nM.
`Cc1c(C(=O)Nc2cscn2)ccc(-c2nn3c(c2C(N)=O)Nc2ccc(N4CCN(CC5CN(c6ccc(N7CCC(=O)NC7=O)cc6)C5)CC4)cc2CC3)c1F` [Example B97, 7-(4-((1-(4-(2,4-dioxotetrahydropyrimidin-1(2H)-yl)phenyl)azetidin-3-yl)methyl)piperazin-1-yl)-2-(2-fluoro-3-methyl-4-(thiazol-4-ylcarbamoyl)phenyl)-9,10-dihydro-4H-benzo[d]pyrazolo[1,5-a][1,3]diazepine-3-carboxamide] yielded a DC50 on BTK of 2.11 nM. In addition, the IC50 in the assay on HEK-293 cells was over 10000 nM.
